Results on one substance are retold here after patent publication US20250177473A1, “PEPTIDE REGULATORS OF METABOLISM” (Metabico, Inc., priority 2022, published 2025).

Experiment [1] relates to pStat3 (Y705) in the hypothalamus. Put plainly: pStat3 (Y705) immunohistochemistry of mouse hypothalamus after administration. It counts as in vivo, C57Bl/6J mice. The conditions noted are these: 60 minutes after administration; EPSI 10 mg/kg intranasally; leptin 5 mg/mL intraperitoneally; 24 h food deprivation. On the procedure:
Fifteen C57Bl/6J 15 weeks old mice (5 animals per group) were used in the study.
We performed food deprivation 24 hours prior to the administration of the compounds. The animals of the experimental group were administered with 10 mg/kg EPSI intranasally (EPSI was dissolved in 10 μL of saline per mouse, 5 μL in each nostril). Positive control animals were administered with 5 mg/mL leptin intraperitoneally (leptin was dissolved in 100 μL of saline per mouse). Negative control mice were administered with 100 μL of saline intraperitoneally. The mice were euthanized 60 minutes after the administration of the compounds.
Narcosis was performed using the combination of Zoletil (20 mg/kg) and Rometar (5 mg/kg). Next, transcardial perfusion was performed with saline to wash out the blood, then with a 10% formalin solution. After complete fixation, the animal bodies were decapitated, the brain was extracted and additionally fixed in 10% formalin, after which it was washed in PBS 3 times for 30 minutes and placed overnight in a 30% sucrose solution in PBS until the tissue was completely impregnated.
The brain samples were placed in a mold, and poured with the freezing medium. […]
The images were received using an inverted microscope Nikon Eclipse Ni. The number of positive cells was calculated using ImageJ software. […]

In experiment [2] the test system is male mice of CBA and C57Bl/6 hybrids, food deprived 12 hours. Briefly: Home cage feed consumption test. It counts as in vivo, mouse. The conditions noted are these: leptin 1 mg/kg i.p. before testing. As for the experimental part:
The work was performed on 30 mature male mice of the first generation of CBA and C57Bl/6 hybrids weighing 22-24 grams. The animals were divided into treatment groups (Table 1).
Solutions for intranasal (i.n.) administration were prepared by dissolving the peptide in saline. The volume of i.n. administration: 1 μl per 1 g of animal weight. Solutions for intraperitoneal (i.p.) administration were prepared by dissolving the drug in saline. The volume of […]. administration: 10 μl per 1 g of animal weight. Solutions were prepared directly on the day of the experiment before the experiment.
All manipulations with animals were performed at the end of the adaptation period of 14 days.
Day 1—Adaptation of animals to the home cage food consumption test. In the evening, animals were deprived of food for 12 hours (overnight).
Day 2—Administration of the test substances and the food consumption test in a home cage for 1.5 hours. Before and after the test, the animals were weighed.
This test was performed to assess the appetite of animals after the treatment with tested compounds. The test was performed in 2 days. […]
Statistical data processing was carried out using nonparametric criteria (Mann-Whitney) for samples with a distribution other than normal. Normally distributed data were analyzed with one-way ANOVA (only Treatment factor) or repeated measures ANOVA (dynamics) with post hoc Fisher test. […]

Take leptin: the “pStat3-positive cells in hypothalamic sections (ratio to total nuclei)” value in experiment [1] is listed as 3%. Besides, the “amount of food consumed over 90 minutes vs control” value in experiment [2] is given as “did not differ”.
